{
  "source": "patent US20180072739A1",
  "about": "“CO-CRYSTALS OF A BRUTON'S TYROSINE KINASE INHIBITOR” (Pharmacyclic LLC, priority 2015, published 2018)",
  "assay": "physchem",
  "details": "water, 25 °C, thermodynamic from solid",
  "protocol": "The suspension was equilibrated at 25° C. for 2 hours with aliquots sampled at 30, 60 and 120 min; the pH was measured at each time point. The suspension was then filtered through a glass fibre C filter. The filtrate was then diluted by an appropriate factor. Quantitation was by HPLC with reference to a standard solution of approximately 0.2 mg/mL in CH3CN:water. Different volumes of the standard, diluted and undiluted sample solutions were injected. […]",
  "data": [
    {"compound": "C=CC(=O)N1CCC[C@@H](n2nc(-c3ccc(Oc4ccccc4)cc3)c3c(N)ncnc32)C1", "note": "[Compound 1, 1-((R)-3-(4-amino-3-(4-phenoxyphenyl)-1H-pyrazolo[3,4-d]pyrimidin-1-yl)piperidin-1-yl)prop-2-en-1-one]", "values": [
      {"measurement": "solubility at 30 min", "value": "~1.64", "unit": "mg/mL"},
      {"measurement": "solubility at 60 min", "value": "~1.64", "unit": "mg/mL"},
      {"measurement": "solubility at 120 min", "value": "~1.69", "unit": "mg/mL"}
    ]}
  ]
}
